Measured values published in patent publication US20160130259A1, “SUBSTITUTED BENZOFURAN COMPOUNDS AND METHODS OF USE THEREOF FOR THE TREATMENT OF VIRAL DISEASES” (priority 2013, published 2016).

Tests used:
HCV replicon genotype 1a = experiment: HCV replicon assay, genotype 1a (cell ELISA for NS3/4A); assay type: cell-based; settings: Hepatitis C virus, 96 h, read-out: 1a IC50 (nM)
Protocol: (§1) Measurement of inhibition by compounds was performed using the HCV replicon system. Several different replicons encoding different HCV genotypes or mutations were used. In addition, potency measurements were made using different formats of the replicon assay, including different ways of measurements and different plating formats. See Jan M. Vrolijk et al., A replicons-based bioassay for the measurement of interferons in patients with chronic hepatitis C, 110 J. Virological Methods 201 (2003); Steven S. Carroll et al., Inhibition of Hepatitis C Virus RNA Replication by 2′-Modified Nucleoside Analogs, 278(14) J. Biological Chemistry 11979 (2003). However, the underlying principles are common to all of these determinations, and are outlined below.
(§2) Stable neomycin phosphotransferase encoding replicons-harboring cell lines were used, so all cell lines were maintained under G418 selection prior to the assay. Potency was determined using a cell ELISA assay with an antibody to the replicons encoded NS3/4a protease. See Caterina Trozzi et al., In Vitro Selection and Characterization of Hepatitis C Virus Serine Protease Variants Resistant to an Active-Site Peptide Inhibitor, 77(6) J. Virol. 3669 (2003). To initiate an assay, replicon cells were plated in the presence of a dilution series of test compound in the absence of G418. Typically, the assays were performed in a 96-well plate formate for manual operation, or a 384-well plate format for automated assay. Replicon cells and compound were incubated for 96 hours. At the end of the assay, cells were washed free of media and compound, and the cells were then lysed. RNA was quantified indirectly through detection of replicon-encoded NS3/4A protein levels, through an ELISA-based assay with an antibody specific for NS3/4A. IC50 determinations were calculated as a percentage of a DMSO control by fitting the data to a four-parameter fit function and the data obtained is provided in the table below.
(§3) Data for selected compounds of the present invention was obtained for genotypes 1a and 1b using this method and is provided in the table below: […]

HCV replicon genotype 1b = experiment: HCV replicon assay, genotype 1b (cell ELISA for NS3/4A); assay type: cell-based; settings: Hepatitis C virus, 96 h, read-out: 1b IC50 (nM)
Protocol: as §1, §2, §3

Compound | IC50 (HCV replicon genotype 1a) | IC50 (HCV replicon genotype 1b)
CNC(=O)c1c(-c2ccc(F)cc2)oc2cc(N(C)S(C)(=O)=O)c(-c3cc(-c4cc5c(F)cccc5[nH]4)c(=O)n(C)c3)cc12 [Compound 1, 5-(5-(4-fluoro-1H-indol-2-yl)-1-methyl-6-oxo-1,6-dihydropyridin-3-yl)-2-(4-fluorophenyl)-N-methyl-6-(N-methylmethylsulfonamido)benzofuran-3-carboxamide] | 3.62 nM | 3.88 nM
CNC(=O)c1c(-c2ccc(F)cc2)oc2cc(N(C)S(C)(=O)=O)c(-c3cc(-c4cc5c(C#N)cccc5[nH]4)c(=O)n(C)c3)cc12 [Compound 2, 5-(5-(4-cyano-1H-indol-2-yl)-1-methyl-6-oxo-1,6-dihydropyridin-3-yl)-2-(4-fluorophenyl)-N-methyl-6-(N-methylmethylsulfonamido)-benzofuran-3-carboxamide] | 2.47 nM | 2.43 nM
CNC(=O)c1c(-c2ccc(F)cc2)oc2cc(N(C)S(C)(=O)=O)c(-c3cc(-c4cc5c(F)cccc5[nH]4)c(=O)n(C(F)F)c3)cc12 [Compound 3, 5-(1-(difluoromethyl)-5-(4-fluoro-1H-indol-2-yl)-6-oxo-1,6-dihydropyridin-3-yl)-2-(4-fluorophenyl)-N-methyl-6-(N-methylmethyl-sulfonamido)benzofuran-3-carboxamide] | 2.98 nM | 5.37 nM
CNC(=O)c1c(-c2ccc(F)cc2)oc2cc(N(C)S(C)(=O)=O)c(-c3cc(-c4cnn(-c5ccc(F)cc5)c4)c(=O)n(C)c3)cc12 [Compound 4, 2-(4-fluorophenyl)-5-(5-(1-(4-fluorophenyl)-1H-pyrazol-4-yl)-1-methyl-6-oxo-1,6-dihydropyridin-3-yl)-N-methyl-6-(N-methyl-methylsulfonamido)benzo-furan-3-carboxamide] | 5.71 nM | 6.81 nM
CNC(=O)c1c(-c2ccc(F)cc2)oc2cc(N(C)S(C)(=O)=O)c(-c3cc(-c4nc5ccccc5o4)c(=O)n(C)c3)cc12 [Compound 5, 5-(5-(benzo[d]oxazol-2-yl)-1-methyl-6-oxo-1,6-dihydropyridin-3-yl)-2-(4-fluorophenyl)-N-methyl-6-(N-methylmethylsulfonamido)benzofuran-3-carboxamide] | 5.82 nM | 3.71 nM
CNC(=O)c1c(-c2ccc(F)cc2)oc2cc(N(C)S(C)(=O)=O)c(-c3cc(N4Cc5c(F)cccc5C4=O)c(=O)n(C)c3)cc12 [Compound 6, 5-(5-(4-fluoro-1-oxoisoindolin-2-yl)-1-methyl-6-oxo-1,6-dihydropyridin-3-yl)-2-(4-fluorophenyl)-N-methyl-6-(N-methylmethylsulfonamido)benzofuran-3-carboxamide] | 16.5 nM | 8.38 nM
CNC(=O)c1c(-c2ccc(F)cc2)oc2cc(N(C)S(C)(=O)=O)c(-c3cc(-c4cc5c(F)cccc5n4C)c(=O)n(C)c3)cc12 [Compound 7, 5-(5-(4-fluoro-1-methyl-1H-indol-2-yl)-1-methyl-6-oxo-1,6-dihydropyridin-3-yl)-2-(4-fluorophenyl)-N-methyl-6-(N-methylmethylsulfonamido)benzofuran-3-carboxamide] | 1.55 nM | 1.1 nM
CNC(=O)c1c(-c2ccc(F)cc2)oc2cc(N(C)S(C)(=O)=O)c(-c3cc(-c4cc5c(F)cccc5n4C)c(=O)n(C(F)F)c3)cc12 [Compound 8, 5-(1-(difluoromethyl)-5-(4-fluoro-1-methyl-1H-indol-2-yl)-6-oxo-1,6-dihydropyridin-3-yl)-2-(4-fluorophenyl)-N-methyl-6-(N-methyl-methylsulfonamido)benzo-furan-3-carboxamide] | 6.45 nM | 5.95 nM
CNC(=O)c1c(-c2ccc(F)cc2)oc2cc(N(C)S(C)(=O)=O)c(-c3cc(-c4cc5ncccc5o4)c(=O)n(C)c3)cc12 [Compound 9, 2-(4-fluorophenyl)-5-(5-(furo[3,2-b]pyridin-2-yl)-1-methyl-6-oxo-1,6-dihydropyridin-3-yl)-N-methyl-6-(N-methylmethylsulfonamido)benzofuran-3-carboxamide] | 13.4 nM | 4.16 nM
